This note sets out measurements from PMC7822861, “A functional family of fluorescent nucleotide analogues to investigate actin dynamics and energetics” (Nature Communications, 2021).

The target in the assay is T1, actin (G-actin, rabbit muscle) (Oryctolagus cuniculus, UniProt P68135).
T1 construct: gene ACTA1; rabbit muscle actin monomer; with mouse twinfilin C-terminal ADF-H domain (residues 176–316), in the crystal only
In words: co-crystal structure ([…] Å); fluorescence anisotropy association/dissociation kinetics. The format is binding.

Consider ATP-ATTO-488, for which the k- entry is reported as “~ (1 ± 0.4) × 10^−3 (k−) s^−1”.
